The results in this text go back to patent US4764618A, “Arginine derivatives and pharmaceutically acceptable acid addition salts thereof” (Mitsubishi Chemical Industries Limited, priority 1984, dated 1988).

The assay has as its target T1, trypsin (Bos taurus, UniProt P00760).
T1 sequence (P00760 24-246): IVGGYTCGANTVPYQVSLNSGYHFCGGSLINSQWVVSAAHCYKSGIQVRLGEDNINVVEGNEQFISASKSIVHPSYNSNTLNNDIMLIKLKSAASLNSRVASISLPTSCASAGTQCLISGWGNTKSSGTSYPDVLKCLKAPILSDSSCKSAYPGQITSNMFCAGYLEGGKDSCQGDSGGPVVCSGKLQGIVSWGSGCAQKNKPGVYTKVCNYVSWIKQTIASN
As to the kind of experiment: Determination of Trypsin-Inhibiting Activity (chromogenic substrate S-2222). It is filed as biochemical. As to conditions: inhibitor concentration giving 50% of ΔA/min (405 nm) without inhibitor; 33.3 μM S-2222, 0.1 M Tris-HCl pH 8.3, 37° C.; read-out: I50. As for the experimental part:
Trypsin-inhibiting activity of the arginine derivatives of this invention was determined by the method described below.
Determination of Trypsin-Inhibiting Activity
Trypsin activity is determined by measuring the rate of formation of para-nitroaniline from synthesized chromogenic substrate Jz-Ile-Glu(γ-OH and γ-OCH3)-Gly-Arg-pNA (S-2222)(benzoylisoleucylglutamyl(γ-OH:γ-OCH3 =1:1)glycylarginine p-nitroanilide) supplied by Kabi Diagnostica Inc. Three (3) ml of a reaction mixture containing 33.3 μM of S-2222 and 0.1 M Tris-HCl buffer solution (pH 8.3) is placed in a cell for spectrophotometry and the cell is placed in the thermostatic cell holder at 37° C. of a Hitachi 124 spectrophotometer. After the cell is kept at 37° C. for 3 minutes, 10 μl of a solution of trypsin dissolved in 0.001N HCl containing 0.05M CaCl2 is added, and increase in absorbance at 405 nm is continuously measured using a recorder to calculate ΔA/min at an initial portion. Various inhibitors in various concentrations are added and ΔA/min values are respectively measured. Data are plotted with the inhibitor concentration as abscissa and ΔA/min as ordinate. From the resulting graph the inhibitor concentrations which give ΔA/min corresponding to 50% of the ΔA/min value when no inhibitor is added are sought as I50.

The structures appear in SMILES notation.

Consider `COc1ccc(C2CCN(C(=O)[C@H](CCCNC(=N)N)NS(=O)(=O)c3ccc4ccc(OC)cc4c3)CC2)cc1` [compound 52], for which the IC50 is 200 nM.

On to `COc1ccc2ccc(S(=O)(=O)N[C@@H](CCCNC(=N)N)C(=O)N3CCC(Cc4ccccc4)CC3)cc2c1` [compound 25], for which the IC50 came to 600 nM.

For `N=C(N)NCCC[C@H](NS(=O)(=O)c1ccc2cc3c(cc2c1)OCCO3)C(=O)N1CCC(c2ccccc2)CC1` [compound 15], the IC50 worked out at 6000 nM.

Turning to `COc1ccc2ccc(S(=O)(=O)N[C@@H](CCCNC(=N)N)C(=O)N3CCC(c4ccccc4)CC3C(=O)O)cc2c1` (some centres unmarked) [compound 24], the IC50 is 400 nM.

For `COc1cc2ccc(S(=O)(=O)N[C@@H](CCCNC(=N)N)C(=O)N3CCC(c4ccccc4)CC3)cc2cc1OC` [Run No. 3], the IC50 worked out at 2400 nM.

As for `N=C(N)NCCC[C@H](NC(=O)c1ccc2ccccc2c1)C(=O)N1CCC(c2ccccc2)CC1` [compound 44], the IC50 was 110000 nM.

Consider `COc1ccc2ccc(S(=O)(=O)N[C@@H](CCCNC(=N)N)C(=O)N3CCN(c4cccc(C(F)(F)F)c4)CC3)cc2c1` [compound 46], for which the IC50 was found to be 1600 nM.

Consider `COc1ccc2ccc(S(=O)(=O)N[C@@H](CCCNC(=N)N)C(=O)N3CCC(C(=O)Nc4ccccc4)CC3)cc2c1` [compound 33], for which the IC50 was determined as 3400 nM.

For `CC1CNc2c(cccc2S(=O)(=O)N[C@@H](CCCNC(=N)N)C(=O)N2CCN(c3ccccc3)CC2)C1` (some centres unmarked) [compound 6], the IC50 worked out at 10000 nM.

As to `COc1ccc2ccc(S(=O)(=O)N[C@@H](CCCNC(=N)N)C(=O)N3CCN(c4ccc(F)cc4)CC3)cc2c1` [compound 26], the IC50 was 860 nM.

In the case of `COc1ccc2ccc(S(=O)(=O)N[C@@H](CCCNC(=N)N)C(=O)N3CCC(Oc4ccccc4)CC3)cc2c1` [compound 43], the IC50 was 25000 nM.

Turning to `COc1ccc2ccc(S(=O)(=O)N[C@@H](CCCNC(=N)N)C(=O)N3CCN(c4ccccc4OC)CC3)cc2c1` [compound 20], the IC50 is 800 nM.

As for `CCOc1ccc2ccc(S(=O)(=O)N[C@@H](CCCNC(=N)N)C(=O)N3CCC(c4ccccc4)CC3)cc2c1` [compound 21], the IC50 was 900 nM.

Consider `N=C(N)NCCC[C@H](NS(=O)(=O)c1cccc2ccccc12)C(=O)N1CCC(c2ccccc2)CC1` [compound 37], for which the IC50 stood at 11000 nM.
